Assay [1] relates to Rhizoctonia solani isolate AG-8 and Gaeumannomyces graminis var. tritici (averaged over all fungal inoculation treatments). Description: Field yield of spring wheat after herbicide treatment, averaged over all fungal inoculation treatments. The note with it: for Yield: glyphosate (ROUNDUP 0.63 kg/ha) on glyphosate res. wheat, Buctril/Harmony on sensitive wheat, 4-5 leaf stage. The format is in vivo. From the text:
This example describes the response of glyphosate resistant and glyphosate sensitive spring wheat to inoculation with soil pathogens as judged by wheat yield. Inoculation simulates the green-bridge effect of dying weeds and volunteer in a standing wheat crop. The soil pathogens assessed were: Rhizoctonia solani isolate AG-8 and Gaeumannomyces graminis var. tritici. These pathogenic strains are prevalent in the Pacific Northwest and were isolated from the region. They have been maintained by the Department of Plant Pathology and USDA researchers at Washington State University.
Near isogenic lines (glyphosate resistant and glyphosate sensitive) of Westbred 926 and Bobwhite were seeded using a no-till drill at three different sites (Lind, Davenport and Pullman, Wash.).
To introduce the root pathogens into the wheat seed for distribution into the field, oat seeds, autoclaved and sterilized, were inoculated for each soilborne pathogen using isolated pathogen cultures. Oat seeds that were non-inoculated, but sterilized and autoclaved, served as a control. Following two weeks of pathogen growth, the inoculated oat seeds were dried down for 2 days and screened for potential contamination. To establish a green-bridge, a mixture of 15% barley and 20% oat inoculum seeds (by weight) were planted using a small plot no-till drill. One week after planting the introduced green-bridge, the wheat isolines were planted in rows adjacent to the barley green-bridge rows in a randomized, split-plot design, replicated in five randomized blocks. Inoculum treatment served as the main plot, and response to herbicides as the subplot factor.
This example describes the effect of herbicide treatment on spring wheat, averaged over all disease treatments, planted as described in Example 1. The appropriate herbicide was applied to each trial once the plants reached the 4-5 leaf stage with a custom built hand-pulled sprayer outfitted with a boom with a length of 16 feet with spray shields on the side to minimize drift. In this manner, an entire plot was treated at once with the appropriate herbicide rate. Entries that were resistant to glyphosate were treated with ROUNDUP® brand herbicide (0.63 kg/ha), available from Monsanto, St. Louis, Mo. Herbicide sensitive and resistant entries were treated with a common broadleaf herbicide treatment (Buctril/Harmony) or a no-spray control. Introduced green-bridge barley and any other weeds were manually removed 7-10 days after spray treatment to simulate the time required for ROUNDUP to take effect and maintained weed-free conditions to provide an accurate comparison to commercial weed management strategies needed to assess potential herbicide/disease interactions.

The next assay has as its system Ggt. Particulars: New Zealand studies; green-bridge effect on couch grass; cited from earlier work.

In the case of `O=C(O)CNCP(=O)(O)O` [glyphosate, N-phosphonomethylglycine], the results for the Yield in assay [1] (Davenport), in assay [1] (Lind) and in assay [1] (Pullman) were 28.9 bu/acre, 14.2 bu/acre and 56.5 bu/acre, respectively. In assay [1] (RoundUp Ready spring wheat, regardless of disease treatment or location), the “grain produced versus glyphosate sensitive NILs treated with Buctril/Harmony Extra or the no spray control” value is “significantly (P=0.001) more grain”. In addition, the “yield of glyphosate resistant wheat versus other treatments” value in assay [1] (Table 2, each trial) is reported as “higher yields in each trial”. For the same compound, in the assay on Ggt, the “levels of infection of cereals with Ggt” value is on record as “increases the levels of infection with Ggt”.
